Tests used:
transgenic mice = conditions: in contrast to normal Aβ; ref [23], [24]; cited from earlier work
Source text: The development of AD comprises a cascade of pathogenic processes in brain tissue. Some of the major elements of this cascade are the aggregation of beta-amyloid (Aβ) with the formation of neurotoxic oligomers, hyperphosphorylation of tau, and neuroinflammation. […] In the sporadic form of AD, accounting for 95% of disease cases, the molecular triggers for the pathological cascade remain unknown. […] We hypothesized that the contribution of isoD7-Aβ to the development of AD is based on the formation of zinc-bound complexes that promote pathological aggregation of Aβ (Fig. 1A). […] Interaction of HAEE with beta-amyloid. (A) A model for the contribution of isoD7-Aβ to AD pathology, and the possible ways of preventing its deleterious effects. Aβ spontaneously converts into isoD7-Aβ, which is accumulated over age, likely due to reduced Aβ clearance. Isomerized Aβ promotes AD pathology, potentially via formation of Zn-bound complexes serving as the seeds for a generation of neurotoxic oligomers. Treatment with anti-isoAβ antibodies is a promising therapeutic strategy already showing effectiveness in AD model mice ^9.

[1] = compared with normal Aβ; ref [9]; cited from earlier work
Source text: We hypothesized that the contribution of isoD7-Aβ to the development of AD is based on the formation of zinc-bound complexes that promote pathological aggregation of Aβ (Fig. 1A).

isoD7-Aβ16 = assay: NMR titration, isoD7-Aβ16 with HAEE and Zn2+; assay type: binding; conditions: addition of Zn2+ without HAEE; disappearance of NMR signal (Supplementary Fig. 3); also ref [9]
Experimental: Peptides Aβ16, H6R-Aβ16 and isoD7-Aβ16 at the concentration of 0.2 - 8mM were dissolved in 10-20 mM bis-Tris-d19 (2,2-Bis(hydroxymethyl)-2,2′,2"-nitrilotrie-thanol-d19 with 98% ^2D enrichment) buffer solution (pH 6.8). Sodium salt of 3-(trimethylsilyl) propionic-2,2,3,3-d4 acid (DSS) at a concentration of 10-20 μM was added as the standard. NMR spectra were measured at 278 K in 90% H2O/10% D2O with Bruker AVANCE 600 MHz spectrometer equipped with triple resonance (^1H, ^13C and ^15N) pulsed field z gradient probe. 1D NMR spectra were processed and analyzed using the Mnova software (Mestrelab Research, Spain). In order to monitor peptide-peptide interactions NMR titration experiments were carried out. […] 1D spectra were recorded for each titration point.

H6R-Aβ16 = conditions: ref [9]; cited from earlier work
Source text: The dimeric form has a well-resolved characteristic signal of the V12 methyl group at 0.2 ppm, which allows for a quantitative assessment of the dimeric state. […] Thus, the ...

Substance: Ac-DAEFRH[isoD]SGYEVHHQK-NH2 [isoD7-Aβ16, reference compound]
- Amyloidosis in transgenic mice (transgenic mice): stimulate amyloidosis
- Zinc-dependent aggregation [1]: increased capacity
- Effect of Zn2+ on isoD7-Aβ16 (oligomerization; NMR signal) (isoD7-Aβ16): almost complete oligomerization and precipitation

Substance: Ac-DAEFRRDSGYEVHHQK-NH2 [H6R-Aβ16, Aβ1-16 variant with the English (H6R) mutation]
- State of H6R-Aβ16 in the presence of Zn2+ (H6R-Aβ16): mixture of monomeric and dimeric forms

Reference: article PMC10017155 (Aging and Disease, 2023)
